Each structure is given as a SMILES string. “Also recorded” adds a separate entry of the source.

These results are taken from patent US20170368018A1, “USE OF ELLAGIC ACID DIHYDRATE IN PHARMACEUTICAL FORMULATIONS TO REGULATE BLOOD GLUCOSE LEVELS” (HALO LIFE SCIENCE, LLC, priority 2014, published 2017).

The test system of data set [1] is mouse myoblast C2C12 cells. In words: Glucose uptake, 2-NBDG labeling, flow cytometry, C2C12. Format: cell-based. Here is the method: (§1) Cellular assays were performed using mouse myoblast C2C12 cells and MEF cells. […] Increased glucose uptake was indicated as increasing signal of 2-NBDG ([…]) in cells. Glucose uptake assays were carried out in a final incubation volume of 50 μl consisting of, 2-NBDG), (100 μM) in 1× Phosphate Buffered Saline w/Ca+, Mg+ (PBS++). The same buffer was used for washing cells. Insulin was used as a positive control. All testing compounds were prepared in 10% DMSO and diluted 1:100 for a final concentration of 0.1% DMSO (vehicle). Cells were culture to 70-90% confluence and then washed twice with PBS++. Cells were incubated for 30 minutes at 37° C. in PBS++. Nuclear stain, HCS CellMask stain (blue, Invitrogen), and/or testing compounds (ellagic acid dihydrate, insulin, or vehicle) were added. Cells were incubated for 30 min at 37° C. Cells were washed twice with PBS++and incubated with 2-NBDG for 10 minutes. Cells were washed thrice with PBS++and then imaged in PBS++. Alternatively, the final PBS wash was removed and cells were incubated with Accutase (Invitrogen) for 10 min at 37° C., neutralized with 10% FBS in 1× PBS, and analyzed by flow cytometry. An additional experiment was performed to measure glucose uptake in C2C12 cells exposed to metformin, insulin and ellagic acid dihydrate 2 (batch 2). FIG. 5C.
In general terms: In flow cytometry, cells or beads pass a laser one at a time.

Another data set has as its system MEF cells. In words: Glucose uptake, 2-NBDG labeling, flow cytometry, MEFs. The class given is cell-based, mouse. Here is the method:
as §1, with “5C. Glucose uptake in ellagic acid dihydrate treated cell culture was measured and compared to glucose uptake under insulin or ellagic acid treatment. […] Flow cytometry results were run in triplicate with 1000 cells per batch.” for “5C.”

The test system of data set [2] is mouse embryonic fibroblasts (MEFs). In words: Cytotoxicity: cell proliferation by automated cell counting (flow cytometry). Format: cell-based. As to conditions: 48 hr exposure, 4 μM-0.04 nM, changes not statistically significant (P>0.05). The method, then: (§2) The cytotoxicity of ellagic acid dihydrate in in vitro cell culture was evaluated. Cellular assays were performed using mouse embryonic fibroblasts (MEFs). Cells were unexposed (No Treatment) or exposed to varying concentrations of ellagic acid dihydrate (4 μM-0.04 nM) or vehicle (0.1% DMSO) for 48 hrs. All assays were run in triplicate.
Cell proliferation rates were determined using automated cell counting of cells after 48 hr exposure to ellagic acid dihydrate in complete medium (DMEM w/10% FBS). Cell were then washed thrice with 1× PBS and incubated with Accutase (Invitrogen) for 10 min at 37° C., neutralized with 10% FBS in 1× PBS, and analyzed by flow cytometry. Cell concentrations were determined by cell counting (500-1000) on a flow cytometer (Accuri C6, BD Biosciences). The concentration of cells reflects the impact of ellagic acid dihydrate on the cell population numbers (cell death and cell proliferation).

Data set [3] deals with AKT / Phos AKT in C2C12 cells. Kind of data set: AKT:phos AKT ratio by immunocytochemistry, high-content imaging. Format: cell-based, mouse. The conditions noted are these: C2C12, serum starved 1 hr, treated 30 minutes, 4 nM-4 μM, FIG. 8. The method, then: Stimulation of AKT pathways and MAPK pathways in ellagic acid dihydrate, metformin, and insulin treated cell cultures was performed. Insulin stimulates glucose uptake into cells by increasing GLUT4 activation, and AKT, specifically phos-AKT, signaling alters GLUT4 translocation. […] Cellular assays were performed using mouse myoblast C2C12 cells. […] Serum starved cells (1 hr) were treated for 30 minutes with each of the tested compounds.

For data set [4], the system named is mouse embryonic fibroblasts (MEFs). Kind of data set: Cytotoxicity: cell membrane integrity by propidium iodide (PI) labeling. The class given is cell-based. As to conditions: 48 hr exposure. The method, then:
as §2
Loss of cellular membrane integrity is an indication of cell death. Cell membrane integrity/cell toxicity was determined by adding propidium iodide (PI) to suspended cells prior to flow cytometry. PI is a red-fluorescent DNA stain that is excluded by live-healthy cells but will enter dead cells in a population. The presence of PI in 500-1000 cells per treatment group was determined by flow cytometry (Accuri C6, BD Biosciences). Cell with disrupted membranes, associated with cell death, are expected to be positively labeled with PI.

The next data set concerns the target glucose oxidase reaction (Aspergillus niger, UniProt P13006). In words: Direct interaction with glucose, glucose oxidase based glucometer on serum. Format: biochemical. As to conditions: incubated with serum at room temperature for five minutes or overnight at 37° C. The method, then: Ellagic acid dihydrate was analyzed for direct interaction with glucose. A glucose oxidase based glucometer was used to measure serum glucose. Ellagic acid dihydrate was incubated with serum at room temperature for five minutes or overnight at 37° C. Upon testing the mixture, no inhibition of the glucose oxidase reaction was observed. Ellagic acid dihydrate is not believed to directly interact with glucose.

Sequence of glucose oxidase reaction (P13006 17-605): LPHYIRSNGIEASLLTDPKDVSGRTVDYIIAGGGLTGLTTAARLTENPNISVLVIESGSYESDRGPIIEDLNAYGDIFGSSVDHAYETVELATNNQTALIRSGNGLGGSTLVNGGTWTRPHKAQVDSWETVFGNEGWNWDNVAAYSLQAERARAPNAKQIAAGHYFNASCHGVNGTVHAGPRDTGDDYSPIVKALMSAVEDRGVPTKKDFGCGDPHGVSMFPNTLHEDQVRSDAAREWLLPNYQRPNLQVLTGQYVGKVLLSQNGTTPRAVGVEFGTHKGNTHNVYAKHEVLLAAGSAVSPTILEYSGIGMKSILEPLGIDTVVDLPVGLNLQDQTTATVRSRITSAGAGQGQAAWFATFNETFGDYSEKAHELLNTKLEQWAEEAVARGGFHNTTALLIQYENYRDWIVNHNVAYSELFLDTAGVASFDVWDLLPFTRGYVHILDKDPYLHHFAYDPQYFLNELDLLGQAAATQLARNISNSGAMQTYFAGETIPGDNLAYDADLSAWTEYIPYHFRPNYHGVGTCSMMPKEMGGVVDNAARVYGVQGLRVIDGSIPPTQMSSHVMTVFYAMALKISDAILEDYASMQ

Turning to `O.O.O=c1oc2c(O)c(O)cc3c(=O)oc4c(O)c(O)cc1c4c23` [ellagic acid dihydrate], the “increase in glucose uptake in myoblasts relative to fibroblasts” value in data set [1] (C2C12 (FIGS. 5A, 5B) versus MEFs (FIGS. 4A, 4B)) is on record as around 4 ×. Besides, in data set [1] (C2C12, 4000 nm, FIG. 5C (batch 2)), the “increase in glucose uptake compared with metformin” value is on record as “greater increase in glucose uptake than metformin”. The “dose effect for increasing glucose uptake” value is “showed a dose effect” in data set [1] (C2C12, flow cytometry, 4 μM-0.04 nM) and “showed a dose effect” in the data set on MEF cells (MEFs, flow cytometry, 4 μM-0.04 nM). Besides, the “glucose uptake (2-NBDG signal) relative to vehicle” value is recorded as “significantly greater than vehicle treated” in data set [1] (C2C12, flow cytometry, FIG. 5A) and “significantly greater than vehicle treated” in the data set on MEF cells (MEFs, flow cytometry, FIG. 4A). The “glucose uptake relative to insulin” value in data set [1] (myoblasts, at most concentrations tested, significant at 4 nM-4 μM, dihydrate) is “significantly more glucose uptake relative to insulin; also recorded: exceeded the uptake induced by insulin”; with MEF cells (fibroblasts, at most concentrations tested, significant at 4 nM-4 μM, dihydrate), “significantly more glucose uptake relative to insulin; also recorded: exceeded the uptake induced by insulin”. Besides, in the data set on MEF cells (400 nM exposure, fibroblasts, FIG. 4B), the “increased glucose uptake relative to vehicle treated cells” value is on record as 47%. In addition, the “increase in glucose uptake compared with ellagic acid or insulin treatment” value with MEF cells (MEFs, flow cytometry, Example 5, FIG. 6) is listed as “significantly greater increase in glucose uptake”. The “glucose uptake per unit dose” value with MEF cells (in vitro conditions, summary statement) was “increase in glucose uptake per unit dose”. Moreover, the Cell proliferation entry in data set [2] is listed as “trend toward increasing cell proliferation”. Also, the “AKT:Phos AKT ratio (log2 scale) relative to vehicle treated cells” value in data set [3] was “increase in AKT relative to Phos-AKT signal”. Also, the “Cell membrane integrity relative to the vehicle or untreated cells” value in data set [4] (400 nM-0.4 nM, not statistically significant (P>0.05)) is “increased”. Also, in data set [4] (4000 nM), the “Cell membrane integrity (% cells negative for PI)” value was found to be 95.40%. Moreover, at glucose oxidase reaction, the “inhibition of the glucose oxidase reaction” value is “no inhibition”.
